This note sets out measurements from PubChem BioAssay (NCI).

Among the test systems are P388/ADR leukemia; SN12K1 renal; RXF-631 renal.
Assay in all cases: NCI tumour cell line growth inhibition, 48 h

Each structure is given as a SMILES string.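 Tested at 5 concentrations; 48 h exposure; 96-well plates; endpoints linearly interpolated, else capped at highest concentration. TGI marks complete inhibition of growth.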

With `CSc1nc(NC2OCC(O)C(O)C2O)c(N)c(=O)[nH]1` (stereo unspecified), the TGI in the assay on P388/ADR leukemia and in the assay with SN12K1 renal was above 100 µM throughout. Regarding `CC(=O)c1ccc2c(c1)c1c(C)c3c[n+](C)ccc3c(C)c1n2C`, the results for the TGI in the assay with P388/ADR leukemia and in the assay with SN12K1 renal were 21.6 µM and 13.7 µM, respectively. Regarding `C/C(N=NS(=O)(=O)c1ccccc1)=C1\C=CC=CN1O`, the TGI in the assay with RXF-631 renal is above 100 µM. As to `CCN(CC)CCNc1ccc2nnn3c4ccc(C)cc4c(=O)c1c23`, the TGI in the assay on RXF-631 renal was 18.4 µM.
